Test results as given in US20230301981A1, “TLR7/8 ANTAGONISTS AND USES THEREOF” (Merck Patent GmbH, priority 2020, published 2023).
Where “and” joins values, the source holds several entries; their conditions need not be identical. Equal values may be shown once. Read-outs that look alike come from different tables or passages of the source.

Biological target: T1, TLR9 (Mus musculus, UniProt Q9EQU3)
T1 construct: from tissue; host or cells: primary splenocytes from C57BL-6/N mouse spleen
T1 sequence (Q9EQU3 26-1032): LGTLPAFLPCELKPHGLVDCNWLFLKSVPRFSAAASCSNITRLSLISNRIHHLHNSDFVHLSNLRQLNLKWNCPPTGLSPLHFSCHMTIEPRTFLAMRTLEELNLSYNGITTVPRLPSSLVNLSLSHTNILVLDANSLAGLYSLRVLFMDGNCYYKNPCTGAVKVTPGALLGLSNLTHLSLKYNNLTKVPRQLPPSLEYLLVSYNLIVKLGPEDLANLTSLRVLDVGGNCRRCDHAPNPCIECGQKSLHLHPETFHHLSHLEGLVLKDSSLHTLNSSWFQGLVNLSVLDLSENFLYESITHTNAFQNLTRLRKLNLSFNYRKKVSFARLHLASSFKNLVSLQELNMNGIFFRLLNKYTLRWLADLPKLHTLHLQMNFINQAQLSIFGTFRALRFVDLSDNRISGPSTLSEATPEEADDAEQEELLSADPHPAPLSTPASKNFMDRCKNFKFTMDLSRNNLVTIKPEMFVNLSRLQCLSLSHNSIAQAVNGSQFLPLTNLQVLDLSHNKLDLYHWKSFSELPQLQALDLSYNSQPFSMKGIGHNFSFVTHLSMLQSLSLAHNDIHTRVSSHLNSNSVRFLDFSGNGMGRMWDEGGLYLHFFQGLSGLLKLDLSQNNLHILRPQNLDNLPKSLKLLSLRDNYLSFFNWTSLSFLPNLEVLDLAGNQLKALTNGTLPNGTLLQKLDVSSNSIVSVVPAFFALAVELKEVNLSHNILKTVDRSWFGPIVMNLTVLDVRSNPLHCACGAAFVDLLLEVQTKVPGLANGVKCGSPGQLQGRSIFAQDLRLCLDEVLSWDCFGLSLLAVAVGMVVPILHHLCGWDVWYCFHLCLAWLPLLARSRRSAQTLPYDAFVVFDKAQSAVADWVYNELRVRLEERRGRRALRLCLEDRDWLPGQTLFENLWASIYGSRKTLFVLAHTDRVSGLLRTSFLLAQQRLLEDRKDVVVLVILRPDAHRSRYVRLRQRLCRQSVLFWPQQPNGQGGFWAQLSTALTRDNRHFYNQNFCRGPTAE
Assay: Mouse spleenocytes cell assay with CpG stimulation (IL6/TNFa ELISA)
Format: cell-based
Settings: CpG 5 µM
Protocol: Mouse spleen from healthy, female C57BL-6/N mice (n=2) were taken out in 50 mL tubes with B-Cell medium and the experiment started directly. The spleen was grinded through a cell strainer by using the punch of a syringe into a 50 mL Falcon tube. Cell strainer and punch were flushed with appropriate amount of washing buffer to avoid cellloss. Then the spleenocytes were centrifuged for 10 min at 552 xg (1600 rpm), 4° C. The erythrocytes within the cell pellet were lysed by resuspending pellet in 1 ml ACK-lysing buffer (4° C.) and incubate for 1 minute at RT. Lysis was stopped by filling up to 50 ml with washing buffer and centrifuged for 10 min at 552 xg (1600 rpm), 4° C. Cells were washed in B-cell Media (IMDM + 25 mM HEPES + 10%FCS + pen/strep + NEAA 10 nM + Sodium Pyrovat 100 nM, β-Mercaptoethanol 50 nM), counted and seeded in a density of 148500 cells per well in a 96 well MTP (135µl of 1,1×106c/ml). The cells were pre-treated with antimalarials (15 µL, in different concentrations according to dose-response curve ranging from 100 pM-50 µM)) for 30 min, at 37° C., 5% CO2, followed by TLR⅞ stimulation with R848 (15 µl, final concentration of 1 µM) or a TLR9 stimulation with CpG (15 µl, final concentration of 5 µM) and incubated at 37° C., 5% CO2 for 18 - 24 hours.
Supernatants were collected and transferred into a 96 well round bottom MTP and stored at -20° C. until ELISA formouse IL6 and mouse TNFa were performed. Plates were read directly after assay on an Envision Multiplate reader. Results were analyzed with GraphPadPrism V8.0. Plot the calculated amount of produced IL6 or TNFa in pg/ml on y-axis and the concentration of each MSC concentration at half logarhythmic scaling on the x-axis to achieve a dose-response curve. Determine IC50 values using Graph Pad Prism analysis software (Transform Y values using “X=Log(X) and log inhibitor vs. response; Variable slope (four parameters).

[1] = IL6 readout, read-out: IC50 TLR9 (IL6 readout) mouse spleenocytes (n=2)
[2] = TNF readout, read-out: IC50 TLR9 (TNF readout) mouse spleenocytes (n=2)

Row | SMILES | IC50 [1] | IC50 [2] | IC50 TLR9 (TNF readout) mouse spleenocytes (n=2) (TNF readout)
1 | COc1ccc2nc3cc(Cl)ccc3c(Nc3cc(CN4CCCC4)c(O)c(CN4CCCC4)c3)c2n1 [Compound 1, Pyronaridine] | 14 nM and 35 nM | 21 nM and 140 nM | 
2 | CCN(CCO)CCCC(C)Nc1ccnc2cc(Cl)ccc12 (centres unmarked) [HYDROXY-CHLOROQUINE HCQ, hydroxychloroquine] | 15400 nM and 1700 nM | 11500 nM | no suppr
